Experimental data: US6468979B1, “Erythromycin derivatives with antibiotic activity” (Zambon Group S.p.A., priority 1998, dated 2002)
In brackets after ≈: the same amount, converted by molar mass.

Key:
S. aureus 77 = assay: In vitro antibacterial activity (MIC), broth dilution micromethod; type: cell-based, Staphylococcus aureus; details: erythromycin-resistant strain, MHB, 37° C., 18 hours
Experimental: (§1) The minimum inhibitory concentrations (MIC), with respect to Gram-positive bacteria (erythromycin-sensitive and -resistant strains) and Gram-negative bacteria, were determined by means of the broth-scaler dilution micromethod in twin series [National Committee for Clinical Laboratory Standards, 1990; Methods for dilution antimicrobial susceptibility tests for bacteria that grow aerobically; Approved standards M7-A2-NCCLS, Villanova, Pa.], using Mueller Hinton Broth (MHB) as culture medium.
(§2) Azithromycin [The Merck Index, XIIth Edition, No. 946) was used as reference macrolide.
(§3) The MIC values, expressed in μg/ml, were determined after incubating the microplates at 37° C. for 18 hours, by evaluating the lowest concentration of antibiotic capable of inhibiting bacterial growth.

S. aureus 929 = assay: as above; type: cell-based, Staphylococcus aureus; details: erythromycin-resistant strain, MHB, 37° C., 18 hours
Experimental: as §1, §2, §3

S. coag. Neg. 845 = assay: as above; type: cell-based, Staphylococcus spp.; details: erythromycin-resistant strain, MHB, 37° C., 18 hours
Experimental: as §1, §2, §3

S. epidermis 60 = assay: as above; type: cell-based, Staphylococcus spp.; details: erythromycin-resistant (inducible) strain, MHB, 37° C., 18 hours
Experimental: as §1, §2, §3

S. specie 916 = assay: as above; type: cell-based, Staphylococcus spp.; details: erythromycin-resistant (inducible) strain, MHB, 37° C., 18 hours
Experimental: as §1, §2, §3

S. haemolyticus 161 = assay: as above; type: cell-based, Staphylococcus haemolyticus; details: erythromycin-resistant strain, MHB, 37° C., 18 hours
Experimental: as §1, §2, §3

S. pneumoniae 1035 = assay: as above; type: cell-based, Streptococcus pneumoniae; details: erythromycin-resistant strain, MHB with 5% horse serum, 37° C., 18 hours
Experimental: as §1
(§4) In the case of Streptococcus pneumoniae, the medium was supplemented with 5% horse serum.
as §2, §3

S. pneumoniae 1047 = assay: as above; type: cell-based, Streptococcus pneumoniae; details: erythromycin-resistant strain, MHB with 5% horse serum, 37° C., 18 hours
Experimental: as §1, §4, §2, §3

S. pneumoniae 1051 = assay: as above; type: cell-based, Streptococcus pneumoniae; details: erythromycin-resistant strain, MHB with 5% horse serum, 37° C., 18 hours
Experimental: as §1, §4, §2, §3

[1] = system: Streptococcus pyogenes C203; assay: In vivo therapeutic efficacy in experimental pulmonary infection in mice; details: CD1 mice, death observed for 7 days, probit analysis; for PD50 1 hour after infection: single oral dose 1 hour after intranasal infection; for PD50 24 hours before infection: single oral dose 24 hours before intranasal infection
Experimental: The therapeutic efficacy, expressed as the 50% protective dose (PD50), of the compounds of formula (I) was evaluated in the experimental pulmonary infection induced in mice by Streptococcus pyogenes C203.
Charles River albino mice (strain CD1) weighing 23-25 g were used, kept in groups of 6 to a cage and fed normally with a standard diet and water ad libitum.
A suspension of Streptococcus pyogenes C203 (equal to about 10^8 CFU) in tryptone broth (0.05 ml) was administered intranasally to each mouse, anaesthetized with a mixture of ethyl ether and chloroform.
The compounds of formula I and the clarithromycin reference compounds were administered orally in a single dose, as a 0.5% suspension Methocel® 1 hour after the infection and 24 hours before the infection.
Observation of the death of the mice was continued for 7 days after the infection.
The PD50, expressed as μmol/kg, was calculated by means of probit analysis.

Molecule	MIC (S. aureus 77; Staphylococcus aureus, 77) [µg/mL]	MIC (S. aureus 929; Staphylococcus aureus, 929) [µg/mL]	MIC (S. coag. Neg. 845; Staphylococcus) [µg/mL]	MIC (S. epidermis 60; Staphylococcus, 60) [µg/mL]	MIC (S. specie 916; Staphylococcus, 916) [µg/mL]	MIC (S. haemolyticus 161; Staphylococcus haemolyticus, 161) [µg/mL]	MIC (S. pneumoniae 1035; Streptococcus pneumoniae, 1035) [µg/mL]	MIC (S. pneumoniae 1047; Streptococcus pneumoniae, 1047) [µg/mL]	MIC (S. pneumoniae 1051; Streptococcus pneumoniae, 1051) [µg/mL]	PD50 1 hour after infection [1] [µmol/kg]	PD50 24 hours before infection [1] [µmol/kg]	MIC S. aureus 77 (S. aureus 77) [µg/mL]	MIC S. aureus 929 (S. aureus 929) [µg/mL]	MIC S. coag. Neg. 845 (S. coag. Neg. 845) [µg/mL]	MIC S. epidermis 60* (S. epidermis 60) [µg/mL]	MIC S. specie 916* (S. specie 916) [µg/mL]	MIC S. haemolyticus 161 (S. haemolyticus 161) [µg/mL]	MIC S. pneumoniae 1035 (S. pneumoniae 1035) [µg/mL]	MIC S. pneumoniae 1047 (S. pneumoniae 1047) [µg/mL]	MIC S. pneumoniae 1051 (S. pneumoniae 1051) [µg/mL]
CC[C@H]1OC(=O)[C@H](C)[C@@H](O[C@H]2C[C@@](C)(OC)[C@@H](O)[C@H](C)O2)[C@H](C)[C@@H](O[C@@H]2O[C@H](C)C[C@H](N(C)C)[C@H]2O)[C@](C)(O)C[C@@H](C)CN(C)[C@H](C)[C@@H](O)[C@]1(C)O [Azithromycin, reference compound]	> 64	> 64	> 64	> 64	> 64	> 64	4 (≈ 5.34 µM)	2 (≈ 2.67 µM)	16 (≈ 21.4 µM)											
CC[C@H]1OC(=O)[C@H](C)[C@@H](O[C@H]2C[C@@](C)(OC)[C@@H](O)[C@H](C)O2)[C@H](C)[C@@H](O[C@@H]2O[C@H](C)C[C@H](N(C)C)[C@H]2O)[C@](C)(OC)C[C@@H](C)C(=O)[C@H](C)[C@@H](O)[C@]1(C)O [Clarithromycin, reference compound]										7.38	>85.6									
CC[C@H]1OC(=O)[C@H](C)[C@@H](O[C@H]2C[C@@](C)(OC)[C@@H](O)[C@H](C)O2)[C@H](C)[C@@H](O[C@@H]2O[C@H](C)C[C@H](N(C)C)[C@H]2O)[C@](C)(O)C[C@@H](C)/C(=N\OCCNCCCCCCNCc2nc(-c3nccs3)cs2)[C@H](C)[C@@H](O)[C@]1(C)O [Compound 1, erythromycin A (E)-9-[O-[2-[6-[([2,4′]bithiazole-2′-ylmethyl)amino]hexylamino]ethyl]oxime]]										22.9	15.5	>64	>64	>64	2 (≈ 1.87 µM)	2 (≈ 1.87 µM)	>64			
CC[C@H]1OC(=O)[C@H](C)[C@@H](O[C@H]2C[C@@](C)(OC)[C@@H](O)[C@H](C)O2)[C@H](C)[C@@H](O[C@@H]2O[C@H](C)C[C@H](N(C)C)[C@H]2O)[C@](C)(O)C[C@@H](C)/C(=N\OCCN(C)CCCCCCNCc2nc(-c3nccs3)cs2)[C@H](C)[C@@H](O)[C@]1(C)O [Compound 2]												>64	>64	>64	2 (≈ 1.84 µM)	4 (≈ 3.68 µM)	>64			
CC[C@H]1OC(=O)[C@H](C)[C@@H](O[C@H]2C[C@@](C)(OC)[C@@H](O)[C@H](C)O2)[C@H](C)[C@@H](O[C@@H]2O[C@H](C)C[C@H](N(C)C)[C@H]2O)[C@](C)(O)C[C@@H](C)/C(=N\OCCNCCCCCCNCc2csc(-c3cccs3)n2)[C@H](C)[C@@H](O)[C@]1(C)O [Compound 4, Erythromycin A (E)-9-[O-[2-[6-[(2-thiophen-2-ylthiazol-4-ylmethyl)amino]hexylamino]ethyl]oxime]]										11.4	14.3	64 (≈ 59.8 µM)	16 (≈ 14.9 µM)	16 (≈ 14.9 µM)	0.5 (≈ 0.467 µM)	8 (≈ 7.47 µM)	16 (≈ 14.9 µM)			
CC[C@H]1OC(=O)[C@H](C)[C@@H](O[C@H]2C[C@@](C)(OC)[C@@H](O)[C@H](C)O2)[C@H](C)[C@@H](O[C@@H]2O[C@H](C)C[C@H](N(C)C)[C@H]2O)[C@](C)(O)C[C@@H](C)/C(=N\OCCNCCCCCCNCc2csc(-n3ccnc3)n2)[C@H](C)[C@@H](O)[C@]1(C)O [Compound 5, Erythromycin A (E)-9-[O-[2-[6-[(2-imidazol-1-ylthiazol-4-ylmethyl)amino]hexylamino]ethyl]oxime]]												>64	>64	>64	1 (≈ 0.948 µM)	4 (≈ 3.79 µM)	>64	4 (≈ 3.79 µM)	4 (≈ 3.79 µM)	2 (≈ 1.9 µM)
CC[C@H]1OC(=O)[C@H](C)[C@@H](O[C@H]2C[C@@](C)(OC)[C@@H](O)[C@H](C)O2)[C@H](C)[C@@H](O[C@@H]2O[C@H](C)C[C@H](N(C)C)[C@H]2O)[C@](C)(O)C[C@@H](C)/C(=N\OCCNCCCCCCNCc2csc(-n3cncn3)n2)[C@H](C)[C@@H](O)[C@]1(C)O [Compound 8, Erythromycin A (E)-9-[O-[2-[6-[(2-[1,2,4]triazol-1-ylthiazol-4-ylmethyl)amino]hexylamino]ethyl]oxime]]												>64	>64	>64	2 (≈ 1.9 µM)	8 (≈ 7.58 µM)	>64	4 (≈ 3.79 µM)	2 (≈ 1.9 µM)	1 (≈ 0.948 µM)
CC[C@H]1OC(=O)[C@H](C)[C@@H](O[C@H]2C[C@@](C)(OC)[C@@H](O)[C@H](C)O2)[C@H](C)[C@@H](O[C@@H]2O[C@H](C)C[C@H](N(C)C)[C@H]2O)[C@](C)(O)C[C@@H](C)/C(=N\OCCNCCCCCCNCc2csc(-n3cccn3)n2)[C@H](C)[C@@H](O)[C@]1(C)O [Compound 10, Erythromycin A (E)-9-[O-[2-[6-[(2-pyrazol-1-ylthiazol-4-ylmethyl)amino]hexylamino]ethyl]oxime]]												>64	32 (≈ 30.3 µM)	32 (≈ 30.3 µM)	1 (≈ 0.948 µM)	4 (≈ 3.79 µM)	64 (≈ 60.7 µM)	1 (≈ 0.948 µM)	0.5 (≈ 0.474 µM)	0.25 (≈ 0.237 µM)
Erythromycin A (E)-9-[O-[2-[6-[(2-[1,2,3]thiadiazol-5-ylthiazol-4-ylmethyl]amino]hexylamino]ethyl]oxime] [Compound 3]										4.5	25.4	>64	64	64	1	0.5	64			
